In patent US12002595B2, “Separation of metal ions by liquid-liquid extraction” (priority 2016, dated 2024):

How the values were obtained:
[1] = Stability constant (log β) of ligand-metal complexes; format: binding; details: 25.0° C., 0.1 M KCl
Procedure: Solution Thermodynamics. All titrant solutions were degassed by boiling for 1 h while being purged under Ar. Carbonate-free 0.1 M KOH was prepared from concentrate (J. T Baker Dilut-It) and was standardized by titrating against 0.1 M potassium hydrogen phthalate (99.95%, Sigma Aldrich). Solutions of 0.1 M HCl were similarly prepared and were standardized by titrating against TRIS (99.9%, J. T. Baker). The glass electrode (Metrohm—Micro Combi—response to [H+]) used for the pH measurements was calibrated at 25.0° C. and at an ionic strength of 0.1 M (KCl) before each potentiometric or spectrophotometric titration. The calibration data were analyzed using the program GLEE (Gans & O'Sullivan, Talanta, 2000, 51 (1): 33-37) to refine for the E° and slope. All thermodynamic measurements were conducted at 25.0° C., in 0.1 M KCl supporting electrolyte under positive Ar gas pressure. The automated titration system was controlled by an 867 pH Module (Metrohm). Two-milliliter Dosino 800 burets (Metrohm) dosed the titrant (0.1 M KOH or 0.1 M HCl) into the thermostated titration vessel (5-90 mL). UV-visible spectra were acquired with an Ocean Optics USB4000-UV-vis spectrometer equipped with a TP-300 dip probe (Ocean Optics; path length of 10 mm), fiber optics and a DH-2000 light source (deuterium and halogen lamps). The fully automated titration system and the UV-vis spectrophotometer were coordinated by LBNL titration system, a computer program developed in house.
Incremental Spectrophotometric Titrations. This method was used to determine the protonation constants of 3,4,3-LI(CAM) as well as the stability constants of its complexes formed with Eu(III), Zr(IV) and ^232Th(IV). The experimental titration setup is similar to previously described systems (Sturzbecher-Hoehne, et al., Radiochimica Acta., 2013, 101 (6): 359-366). For the 3,4,3-LI(CAM) protonation (and Eu(III)-3,4,3-LI(CAM) complexes), titrations were performed with an initial concentration of 50 μM of 3,4,3-LI(CAM) (and 50 μM of Eu(III)) resulting in absorbance values included between 0 and 1.0 throughout the titration. Typically, 9 mL of a sample containing 3,4,3-LI(CAM) (and Eu(III)) and the supporting electrolyte (KCl/HCl) were incrementally perturbed by addition of 0.025 mL of carbonate-free 0.1 M KOH followed by a time delay of 80 s. Buffering of the solution was ensured by the addition of 10 mM of HEPES, 10 mM of CHES and 10 mM of MES. Between 130 and 250 data points were collected per titration, each data point including a pH measurement and a UV-Vis spectrum (250-450 nm) over the pH range 1.5 to 12.0. All spectra were corrected for dilution before data fitting. The entire procedure (electrode calibrate, titration and data treatment) was performed independently five times for the protonation constants and four times for the Eu(III)-3,4,3-LI(CAM) complexes. For the Zr(IV) and Th(IV) complexes, titrations were performed similarly but in the presence of DTPA to avoid the formation of metal hydroxides at low pH, before the uptake by 3,4,3-LI(CAM). For each metal, three titrations were performed independently in the presence of 1.1 to 40 equivalents of DTPA.
Data Treatment. […] All metal and chelator concentrations were held at estimated values determined from the volume of standardized stock solutions. All species formed with 3,4,3-LI(CAM) were considered to have significant absorbance to be observed in the UV-vis spectra and were therefore included in the refinement process. […]

[2] = Eu(III), I=2.0 M at 25° C.; cited from earlier work
[3] = Extraction by HDEHP with 1 mM 343HOPO in 0.1 M HNO3 and 1.9 M NaNO3; details: chelator in place of 343HOPO; acidic conditions
Procedure: Aqueous phase: 1 mM 343HOPO in 0.1 M HNO3 and 1.9 M NaNO3. Organic phase: HDEHP in kerosene.
A log scale is used for clarity. See FIGS. 58A and 58B for results as a function of the phase ratio.
(§1) For Example 20—Example 24, pH measurements were performed with a glass electrode (Metrohm-Micro Combi-response to [H+]) calibrated at 25.0° C. using three NIST standards. Extraction samples were analyzed by liquid scintillation counting (LSC). The distribution coefficient, D(M), of a given metal, M, is defined in Eq. 1, where [M]organic and [M]aqueous are the respective total concentrations of M in the organic and aqueous layers, after extraction. Both concentrations are proportional to the volumetric activity (in Bq/L) determined by LSC. The separation factor, SFM1/M2, between two metals, M1 and M2, and extraction yield were calculated according to Eq. 2 and Eq. 3, respectively.
(§2) In a typical experiment, the solvent (extractant diluted in kerosene) was pre-conditioned by shaking one volume of solvent with three volumes of aqueous phase (typically HNO3) at room temperature for 1 h, thrice. For radioisotope extractions, at least 400 μL aqueous phase (typically containing HNO3, a chelator and a radioisotope) and solvent were placed in air-tight screw-capped plastic tubes, triply-contained, and shaken in a thermoshaker at 300 rpm, 25° C., for at least 30 min. Samples were then centrifuged for 5 min at 3000 rpm and phases separated before analysis. LSC analyses were performed on a Packard Tri-Carb B4430 instrument (Perkin Elmer) after mixing sample aliquots or sample dilution aliquots (10 to 200 μL) with 10 mL of scintillation cocktail (UltimaGold LLT). Samples were counted for at least 6 min and results were background subtracted. The analytical samples contained between 0 and 800,000 CPM. Mixtures of ^249Bk and ^249Cf were analyzed using α/β discrimination and energy windows were set to 0-50 keV for low-energy β particles of ^249Bk and 50-1000 keV for α particles of ^249Cf. ^243Am and ^225Ac samples were counted at secular equilibrium.

[4] = Extraction by TODGA from HNO3 in the absence or presence of 1 mM 343HOPO
Procedure: Organic phase: 0.1 M TODGA in kerosene. Aqueous solvent: HNO3. T=25° C. O/A=1, one contact. Points with arrows are lower limits.
as §1, §2

For `O=C(NCCCN(CCCCN(CCCNC(=O)c1cccc(O)c1O)C(=O)c1cccc(O)c1O)C(=O)c1cccc(O)c1O)c1cccc(O)c1O` [3,4,3-LI(CAM)], the “log β110” value ([1]; [Eu-3,4,3-LI(CAM)]^5−) was 29.7, the “log β110” value ([1]; [Th-3,4,3-LI(CAM)]^4−) was 47.7 and the “log β110” value ([1]; [Zr-3,4,3-LI(CAM)]^4−) was 57.3.

In the case of `CC(O)C(=O)O` (stereo not drawn) [lactate], the “log β130” value [2] is listed as 5.88.

With `O=C(O)CN(CC(=O)O)[C@H]1CCCC[C@@H]1N(CC(=O)O)CC(=O)O` [CDTA, Trans-1,2-cyclohexanediamine-N,N,N′,N′-tetraacetic acid] the “separation between Bk and Cf” value [3] was “no separation at all”.

In the case of `O=C(O)CN(CCN(CC(=O)O)CC(=O)O)CC(=O)O` [EDTA, Ethylenediaminetetraacetic acid], the “separation between Bk and Cf” value [3] is reported as “no separation at all”.

For `CCCCCCCCN(CCCCCCCC)C(=O)COCC(=O)N(CCCCCCCC)CCCCCCCC` [TODGA, N,N,N′,N′-tetraoctyl diglycolamide, reference compound], the “distribution factor of uranyl (Du)” value ([4]; TODGA as extractant) was less than 30 and the “extraction yields of Gd^3+, Lu^3+, UO2^2+, Pu^4+, and Cf^3+ from HNO3” value ([4]; if HNO3>1 M, no chelator, 0.1 M TODGA in kerosene) was greater than 99.5%.

For `O=C(O)CN(CC(=O)O)CC(=O)O` [NTA, Nitrilotriacetic acid], the “separation between Bk and Cf” value [3] was “no separation at all”.
